pIC50: −log10 of the molar value.
Key:
Acetylcholinesterase = Acetylcholinesterase (Homo sapiens, UniProt P22303)
Description: Evaluated for the in vitro inhibition of the Acetylcholinesterase (AChE) from human erythrocytes

Mus musculus [1] = test: Tested for effective dose for […] by peroral administration in vivo in mouse; format: functional; details: po
Butyrylcholinesterase = Butyrylcholinesterase (Equus caballus, UniProt Q9N1N9)
Description: Compound was evaluated for the in vitro inhibition of the Butyrylcholinesterase from horse serum

Mus musculus [2] = test: In vivo activity was determined by measuring […] in mouse forebrain.; format: functional
Mus musculus [3] = species on record: Mus musculus; test: animal or person
Description: Tested for effective dose for elevation of Acetylcholinesterase (AChE) in mouse forebrain

Chain of Butyrylcholinesterase (Q9N1N9 whole entry): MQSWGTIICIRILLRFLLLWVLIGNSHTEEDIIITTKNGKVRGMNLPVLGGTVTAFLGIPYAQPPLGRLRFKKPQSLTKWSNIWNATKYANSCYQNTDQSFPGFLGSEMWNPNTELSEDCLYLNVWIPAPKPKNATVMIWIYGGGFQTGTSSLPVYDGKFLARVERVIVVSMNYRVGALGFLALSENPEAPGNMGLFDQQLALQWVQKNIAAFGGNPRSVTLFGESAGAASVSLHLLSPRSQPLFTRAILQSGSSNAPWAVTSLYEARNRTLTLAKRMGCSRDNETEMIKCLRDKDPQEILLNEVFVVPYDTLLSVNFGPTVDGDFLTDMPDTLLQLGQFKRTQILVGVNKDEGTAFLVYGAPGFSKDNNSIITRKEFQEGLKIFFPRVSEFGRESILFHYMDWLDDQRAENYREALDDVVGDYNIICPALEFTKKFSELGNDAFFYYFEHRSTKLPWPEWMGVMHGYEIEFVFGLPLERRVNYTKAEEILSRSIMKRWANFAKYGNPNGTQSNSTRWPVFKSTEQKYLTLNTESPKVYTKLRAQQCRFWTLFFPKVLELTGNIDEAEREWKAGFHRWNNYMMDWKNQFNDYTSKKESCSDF
Chain of Acetylcholinesterase (P22303 whole entry): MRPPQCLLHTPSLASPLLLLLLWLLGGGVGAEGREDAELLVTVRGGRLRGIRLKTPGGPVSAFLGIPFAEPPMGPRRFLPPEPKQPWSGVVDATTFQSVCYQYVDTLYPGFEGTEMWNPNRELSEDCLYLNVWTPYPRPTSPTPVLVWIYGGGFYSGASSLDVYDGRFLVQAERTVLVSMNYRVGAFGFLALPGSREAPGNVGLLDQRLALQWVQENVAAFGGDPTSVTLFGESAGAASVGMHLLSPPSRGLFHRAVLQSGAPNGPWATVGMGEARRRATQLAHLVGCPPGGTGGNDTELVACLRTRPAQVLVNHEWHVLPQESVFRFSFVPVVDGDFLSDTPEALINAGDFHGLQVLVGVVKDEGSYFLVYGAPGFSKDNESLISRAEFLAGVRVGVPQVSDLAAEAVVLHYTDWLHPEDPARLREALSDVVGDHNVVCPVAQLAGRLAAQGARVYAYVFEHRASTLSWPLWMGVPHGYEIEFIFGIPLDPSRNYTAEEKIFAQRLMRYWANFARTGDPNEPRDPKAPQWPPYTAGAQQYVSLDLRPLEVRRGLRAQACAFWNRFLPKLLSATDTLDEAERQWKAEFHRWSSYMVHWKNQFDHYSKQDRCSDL

N#Cc1ccc2c(CCC3CCN(Cc4ccccc4)CC3)noc2c1
pIC50 (Acetylcholinesterase): 7.00

Cc1cc2onc(CCC3CCN(Cc4ccccc4)CC3)c2cc1C
pIC50 (Acetylcholinesterase): 8.24

c1ccc(CN2CCC(CCc3ncnc4ccccc34)CC2)cc1
pIC50 (Acetylcholinesterase): 6.47

Cc1ccc2onc(CCC3CCN(Cc4ccccc4)CC3)c2c1
pIC50 (Acetylcholinesterase): 8.11

CC(=O)Nc1ccc2c(CCC3CCN(Cc4ccccc4)CC3)noc2c1
ED50 (Mus musculus [1]): 2.4 mg/kg | pIC50 (Acetylcholinesterase): 8.55 | pIC50 (Butyrylcholinesterase): 5.05

CNC(=O)Oc1ccc2c(c1)[C@]1(C)CCN(C)[C@@H]1N2C [PHYSOSTIGMINE]
pIC50 (Butyrylcholinesterase): 7.14

c1ccc(CN2CCC(CCc3noc4cc(N5CCOCC5)ccc34)CC2)cc1
pIC50 (Butyrylcholinesterase): 5.33

Brc1ccc2c(CCC3CCN(Cc4ccccc4)CC3)noc2c1
pIC50 (Acetylcholinesterase): 7.30

O=C(Nc1ccc2c(CCC3CCN(Cc4ccccc4)CC3)noc2c1)c1ccccc1
ED50 (Mus musculus [2]): > 100 mg/kg

COc1cc2c(cc1OC)C(=O)C(CC1CCN(Cc3ccccc3)CC1)C2 (stereo not drawn) [DONEPEZIL]
ED50 (Mus musculus [3]): 14 mg/kg

O=S(=O)(Nc1ccc2c(CCC3CCN(Cc4ccccc4)CC3)noc2c1)c1ccccc1
pIC50 (Acetylcholinesterase): 7.85

From ChEMBL document CHEMBL1127437, “Novel benzisoxazole derivatives as potent and selective inhibitors of acetylcholinesterase” (J Med Chem, 1994)
